According to US8183256B2, “Remedy or preventive for integration dysfunction syndrome” (Toray Industries, Inc., priority 2008, dated 2012):

Key:
[1] = test system: Prepulse Inhibition (PPI); assay: Startle response in rat prepulse inhibition (PPI) model; format: in vivo; conditions: SD male rats
Source text: Further, the fact that there is no risk, in the above-described compound or a pharmaceutically acceptable acid addition salt thereof, of causing impaired information processing related to cognitive deficiencies which is a symptom of schizophrenia can be confirmed by investigating the effect of the compound on the phenomenon wherein the startle response to a startle stimulus (pulse) in an animal is inhibited by presentation of a weak stimulus (prepulse) prior to presentation of a startle stimulus (pulse) (Prepulse Inhibition, PPI) according to the method described in Bio. Psychiatry., 57, 1550, 2005. In this method, inhibition of PPI indicates abnormality in information processing, and is known to reflect cognitive deficiencies, which is a symptom of schizophrenia, and the like.
In the experiments, 8 SD male rats of 9 to 10 weeks old were used per each group. The measurement was carried out using an apparatus for measuring startle responses of small animals (San Diego Instruments). […]

[2] = test system: PCP-induced hyperlocomotion; assay: Mouse PCP-induced hyperlocomotion; format: in vivo; conditions: ddy male mice, PCP 10 mg/kg s.c.

Compound: CN(C(=O)/C=C/c1ccoc1)[C@@H]1CC[C@@]2(O)[C@H]3Cc4ccc(O)c5c4[C@@]2(CCN3CC2CC2)[C@H]1O5.Cl [Compound 1, (−)-17-(Cyclopropylmethyl)-3,14β-Dihydroxy-4,5α-Epoxy-6β-[N-Methyl-Trans-3-(3-Furyl)Acrylamido]Morphinan Hydrochloric Acid Salt]
- effect on PPI (% Prepulse Inhibition) ([1]; 0.03 mg/kg s.c., 30 minutes before stimulation session, 80 dB prepulse, 120 dB pulse): did not inhibit PPI
- dose statistically significantly inhibiting PCP-induced hyperlocomotion ([2]; test compound s.c. 1 minute before PCP, locomotor counts, vs vehicle-administered group): ≥ 0.01 mg/kg

Compound: C=C1CC[C@@]2(O)[C@H]3Cc4ccc(O)c5c4[C@@]2(CCN3CC2CC2)[C@H]1O5 [Nalmefene]
- effect on the amount of locomotion (PCP-induced hyperlocomotion) ([2]; test compound at 10 mg/kg s.c.): did not have any effect

Compound: c1ccc(C2(N3CCCCC3)CCCCC2)cc1 [Phencyclidine]
- effect on PPI (% Prepulse Inhibition) ([1]; positive control at 4 mg/kg, p<0.05 against the vehicle-administered group): statistically significant inhibitory effect on PPI
